Where “and” joins values, the source holds several entries; their conditions need not be identical. Equal entries are not always repeated. Where two headings read alike, the source gives them in different places.
What was measured:
[1] = system: Reticulitermes santonensis; conditions: comparative values, Holz als Roh- und Werkstoff 35 (1977) 233-237, table 10; cited from earlier work
[2] = system: worker termites (Coptotermes formosanus); assay: Formicidal test: treated filter paper in petri dish, termite mortality; assay type: in vivo; conditions: for mortality at 0.32 ppm / mortality at 1.6 ppm / mortality at 8 ppm / mortality at 40 ppm: Coptotermes formosanus, 96 h, read-out: Mortality of termites after four days
Excerpt: Examples of the active compounds according to the present invention • I.1: 1-(6-chloro-3-pyridylmethyl)-2-nitromethylene-imidazolidine • I.2: 3-(6-chloro-3-pyridylmethyl)-2-nitromethylene-thiazolidine • I.3: imidacloprid
Comparative compounds • A: phoxim • B: chlorpyriphos Preparation of test formulation: • Solvent: 3 parts by weight of xylene • Emulsifier: 1 part by weight of polyoxyethylene-alkylphenyl-ether
To prepare a suitable formulation of the active compound, 1 part by weight of each of the active compounds was mixed with the above-mentioned amount of the solvent containing the above-mentioned amount of the emulsifier, and the mixture was diluted with water to a predetermined concentration.
1 ml of the aqueous solution prepared in the above-mentioned procedure was uniformly applied using a pipette onto a filter paper that was placed in petri dish of 9 cm diameter. Ten head of worker termites (Coptotermes formosanus) were replaced into the petri dish and it was kept in a constant temperature chamber at 25° C.
After four days, the mortality of the termites was investigated. This test procedure was carried out in duplicate per each concentration of the active compounds under test.

[3] = system: larvae of Hylotrupes bajulus; conditions: comparative values, Holz als Roh- und Werkstoff 35 (1977) 233-237, table 6; cited from earlier work
[4] = system: working termites and soldier termites (Coptotermes formosanus); assay: whole plant or invertebrate; assay type: in vivo; conditions: for Degree of xylophagous damage in the pine tree block (0-5): after three weeks; for mortality at 0.32 ppm / mortality at 1.6 ppm / mortality at 8 ppm / mortality at 40 ppm: Coptotermes formosanus, read-out: Mortality termites after three weeks; for Mortality termites after three weeks: blocks aged four weeks at 40° C.
Experimental: Small blocks of Japanese redpine tree (2 cm×2 cm×2 cm) were soaked for one minute into the aqueous solution prepared by the similar procedure to Example 8.
After air-dried, they were kept in a constant temperature chamber at 40° C. for four weeks. Then each of the thus treated blocks was placed in a polymeric cup (10 cm diameter) containing 150 ml of sandy loam of 20% moisture content. Into each of the polymeric cups, 100 head of working termites and 10 head of soldier termites (Coptotermes formosanus) were released. After three weeks, the degree of xylophagous damage in the block and the mortality of the termites were investigated.

[5] = system: larvae of Hylotrupes bajulus; assay: Toxic value against larvae of Hylotrupes bajulus, DIN EN 47, impregnated wood samples; assay type: in vivo
Excerpt: The toxicity against larvae of Hylotorupes bajulus, using wood samples treated with the active compound I.3 […] to the detailed description of DIN EN 47 (edition 1990, Beuth Verlag GMBH) which is concerned with the European standard method prescribed by the European Committee for standardization concerning wood preservatives, determination of the toxic value against larvae of Hylotrupes bajulus.
An outline of the method is as follows: (see DIN EN 47 for detail)
Five wood-samples (50 mm×25 mm×15 mm) which are treated by the active compound beforehand (impregnation treatment in vacuum) are provided and in each specimen, a regular pattern of six holes are bored, and then one head of the larvae is inserted per a hole.
After four weeks, the specimens are cut up in turn and the number of live/dead of larvae is determined.
In determination, where a live larvae is identified in a specimen, then the remaining specimens without cutting up are stored for a further eight weeks, and afterword, the number of live/dead larvae is determined.

[6] = system: Reticulitermes santonensis; assay: Effectiveness against Reticulitermes santonensis, DIN EN 117, impregnated wood samples; assay type: in vivo; conditions: eight weeks, per wood sample
Experimental: The toxicity against Reticulitermes santonensis of solutions containing the active compound I.3 in chloroform having the concentrations mentioned in Example 10 was determined according to the detailed description of DIN EN 117 Edition 1981 which is concerned with the European standard method prescribed by the European Committee for standardization concerning wood preservatives, determination of the toxic value against Reticulitermes santonesis.
An outline of the method is as follows: (see DIN EN 117 for detail)
The same three wood-samples with impregnation treatment in vacuum as in Example 10 are provided.
They are exposed to 250 workers, 1 soldier and 1 nymph per batch for eight weeks, and afterword, the number of live/dead larvae is determined.
The evaluation was made by the following standard:
* rating values: • 0=no attack • 1=attempted attack • 2=slight attack • 3=average attack • 4=strong attack

[7] = 0.32 ppm active compound, filter paper, 25° C.
[8] = 1.6 ppm active compound, filter paper, 25° C.
[9] = 8 ppm active compound, filter paper, 25° C.
[10] = 40 ppm active compound, filter paper, 25° C.
[11] = 4 weeks, impregnating solution 0.00144 %, M-value 10.80 g/m^3 wood
[12] = 4 weeks, impregnating solution 0.0072 %, M-value 52.85 g/m^3 wood
[13] = 4 weeks, impregnating solution 0.0144 %, M-value 103.97 g/m^3 wood
[14] = 12 weeks, impregnating solution 0.000144 % (so in the source), M-value 0.11 g/m^3 wood
[15] = 12 weeks, impregnating solution 0.000144 %, M-value 1.08 g/m^3 wood
[16] = 12 weeks, impregnating solution 0.00144 % (remaining three specimens), M-value 10.80 g/m^3 wood
[17] = 1.44 × 10^−2% (m/m), average absorbed 136.627 g/m^3
[18] = 1.44 × 10^−3% (m/m), average absorbed 13.463 g/m^3
[19] = 1.44 × 10^−4% (m/m), average absorbed 1.344 g/m^3
[20] = 1.44 × 10^−5% (m/m), average absorbed 0.135 g/m^3
[21] = 7.20 × 10^−3% (m/m), average absorbed 68.211 g/m^3

Structure (SMILES): CCOP(=S)(OCC)O/N=C(\C#N)c1ccccc1 [A, 0-(α-cyanobenzylideneamino)0,0-diethylphosphorothioate, reference compound]
- toxic value [1]: 400 g/m^3
- mortality at 0.32 ppm [2, 7]: 90%
- mortality at 1.6 ppm [2, 8]: 100%
- mortality at 8 ppm [2, 9]: 100%
- mortality at 40 ppm [2, 10]: 100%
- toxic value [3]: 7-12 g/m^3
- Degree of xylophagous damage in the pine tree block (0-5) ([4]; 0.32 ppm): 5
- Degree of xylophagous damage in the pine tree block (0-5) ([4]; 1.6 ppm): 5
- Degree of xylophagous damage in the pine tree block (0-5) ([4]; 8 ppm): 5
- Degree of xylophagous damage in the pine tree block (0-5) ([4]; 40 ppm): 3
- mortality at 0.32 ppm [4]: 0%
- mortality at 1.6 ppm [4]: 0%
- mortality at 8 ppm [4]: 0%
- mortality at 40 ppm [4]: 25%

Structure (SMILES): CCOP(=S)(OCC)Oc1nc(Cl)c(Cl)cc1Cl [B, 0,0-diethyl-3,5,6-trichloro-2-pyridylphosphorothioate, reference compound]
- Mortality of termites after four days [2, 7]: 100%
- Mortality of termites after four days [2, 8]: 100%
- Mortality of termites after four days [2, 9]: 100%
- Mortality of termites after four days [2, 10]: 100%
- Degree of xylophagous damage in the pine tree block (0-5) ([4]; 0.32 ppm): 5
- Mortality termites after three weeks ([4]; 0.32 ppm): 0%
- Degree of xylophagous damage in the pine tree block (0-5) ([4]; 1.6 ppm): 3
- Mortality termites after three weeks ([4]; 1.6 ppm): 0%
- Degree of xylophagous damage in the pine tree block (0-5) ([4]; 8 ppm): 1
- Mortality termites after three weeks ([4]; 8 ppm): 78%
- Degree of xylophagous damage in the pine tree block (0-5) ([4]; 40 ppm): 0
- Mortality termites after three weeks ([4]; 40 ppm): 100%

Structure (SMILES): CCC(C)c1ccccc1OC(=O)NC (stereo not drawn) [Bassa (Baycarb)]
- toxic value [1]: 500 g/m^3

Structure (SMILES): CCOP(=S)(OCC)ON=C(C#N)c1ccccc1Cl [Chlorophoxim]
- toxic value [1]: 500 g/m^3

Structure (SMILES): Clc1ccc(C(c2ccc(Cl)cc2)C(Cl)(Cl)Cl)cc1 [DDT]
- toxic value [1]: >1 500 g/m^3
- toxic value [3]: 5-10 g/m^3

Structure (SMILES): ClC1=C(Cl)[C@]2(Cl)[C@@H]3[C@@H]4C[C@@H]([C@H]5O[C@@H]45)[C@@H]3[C@@]1(Cl)C2(Cl)Cl [Dieldrin]
- toxic value [1]: 50 g/m^3

Structure (SMILES): CCOP(=S)(OCC)Oc1ccc([N+](=O)[O-])cc1 [Ethylparathion]
- toxic value [1]: 200 g/m^3

Structure (SMILES): O=[N+]([O-])C=C1NCCN1Cc1ccc(Cl)nc1 [I.1, 1-(6-chloro-3-pyridylmethyl)-2-nitromethylene-imidazolidine]
- mortality at 0.32 ppm [2, 7]: 100%
- mortality at 1.6 ppm [2, 8]: 100%
- mortality at 8 ppm [2, 9]: 100%
- mortality at 40 ppm [2, 10]: 100%
- Degree of xylophagous damage in the pine tree block (0-5) ([4]; 0.32 ppm): 0.5
- Degree of xylophagous damage in the pine tree block (0-5) ([4]; 1.6 ppm): 0
- Degree of xylophagous damage in the pine tree block (0-5) ([4]; 8 ppm): 0
- Degree of xylophagous damage in the pine tree block (0-5) ([4]; 40 ppm): 0
- mortality at 0.32 ppm [4]: 98%
- mortality at 1.6 ppm [4]: 100%
- mortality at 8 ppm [4]: 100%
- mortality at 40 ppm [4]: 100%

Structure (SMILES): O=[N+]([O-])C=C1SCCN1Cc1ccc(Cl)nc1 [I.2, 3-(6-chloro-3-pyridylmethyl)-2-nitromethylene-thiazolidine]
- mortality at 0.32 ppm [2]: 100%
- mortality at 1.6 ppm [2]: 100%
- mortality at 8 ppm [2]: 100%
- mortality at 40 ppm [2]: 100%
- Degree of xylophagous damage in the pine tree block (0-5) ([4]; 0.32 ppm): 0
- Degree of xylophagous damage in the pine tree block (0-5) ([4]; 1.6 ppm): 0
- Degree of xylophagous damage in the pine tree block (0-5) ([4]; 8 ppm): 0
- Degree of xylophagous damage in the pine tree block (0-5) ([4]; 40 ppm): 0
- mortality at 0.32 ppm [4]: 100%
- mortality at 1.6 ppm [4]: 100%
- mortality at 8 ppm [4]: 100%
- mortality at 40 ppm [4]: 100%

Structure (SMILES): O=[N+]([O-])N=C1NCCN1Cc1ccc(Cl)nc1 [I.3, 1-(6-chloro-3-pyridylmethyl)-2-nitroimino-imidazolidine]
- mortality at 0.32 ppm [2]: 100%
- mortality at 1.6 ppm [2]: 100%
- mortality at 8 ppm [2]: 100%
- mortality at 40 ppm [2]: 100%
- Degree of xylophagous damage in the pine tree block (0-5) ([4]; 0.32 ppm): 0
- Degree of xylophagous damage in the pine tree block (0-5) ([4]; 1.6 ppm): 0
- Degree of xylophagous damage in the pine tree block (0-5) ([4]; 8 ppm): 0
- Degree of xylophagous damage in the pine tree block (0-5) ([4]; 40 ppm): 0
- mortality at 0.32 ppm [4]: 100%
- mortality at 1.6 ppm [4]: 100%
- mortality at 8 ppm [4]: 100%
- mortality at 40 ppm [4]: 100%
- State of the larvae at the end of the test: dead, no wood digested [5, 11]: 4
- State of the larvae at the end of the test: dead, wood digested [5, 11]: 6
- State of the larvae at the end of the test: living [5, 11]: 1
- State of the larvae at the end of the test: not found [5, 11]: 1
- State of the larvae at the end of the test: dead, no wood digested [5, 12]: 29
- State of the larvae at the end of the test: dead, wood digested [5, 12]: 1
- State of the larvae at the end of the test: living [5, 12]: 0
- State of the larvae at the end of the test: not found [5, 12]: 0
- State of the larvae at the end of the test: dead, no wood digested [5, 13]: 27
- State of the larvae at the end of the test: dead, wood digested [5, 13]: 3
- State of the larvae at the end of the test: living [5, 13]: 0
- State of the larvae at the end of the test: not found [5, 13]: 0
- State of the larvae at the end of the test: dead, no wood digested [5, 14]: 1
- State of the larvae at the end of the test: dead, wood digested [5, 14]: 4
- State of the larvae at the end of the test: living [5, 14]: 23
- State of the larvae at the end of the test: not found [5, 14]: 2
- State of the larvae at the end of the test: dead, no wood digested [5, 15]: 4
- State of the larvae at the end of the test: dead, wood digested [5, 15]: 12
- State of the larvae at the end of the test: living [5, 15]: 11
- State of the larvae at the end of the test: not found [5, 15]: 3
- State of the larvae at the end of the test: dead, no wood digested [5, 16]: 6
- State of the larvae at the end of the test: dead, wood digested [5, 16]: 11
- State of the larvae at the end of the test: living [5, 16]: 0
- State of the larvae at the end of the test: not found [5, 16]: 1
- rating [6, 17]: 0
- surviving workers [6, 17]: 0%
- rating [6, 18]: 1
- surviving workers [6, 18]: 0%
- rating [6, 19]: 1
- surviving workers [6, 19]: 0%
- rating [6, 20]: 4
- surviving workers [6, 20]: 55% and 51% and 58%
- rating [6, 21]: 0
- surviving workers [6, 21]: 0%

Structure (SMILES): Cl[C@H]1[C@H](Cl)[C@@H](Cl)[C@@H](Cl)[C@H](Cl)[C@H]1Cl [Lindan]
- toxic value [1]: 75 g/m^3

Structure (SMILES): CNC(=O)Oc1ccccc1OC(C)C [Propoxur]
- toxic value [1]: 140 g/m^3
- toxic value [3]: 18-30 g/m^3

Reference: patent US6936624B2, “Agents for preserving technical materials against insects” (Nihon Bayer Agrochem K.K., priority 1991, dated 2005)
